The values that follow are results of earlier work, collected in PMC11599114 (Viruses, 2024).

The data set deals with influenza A virus(oseltamivir-resistant strain). On the set-up: method as in ref 30447229. The settings on record: MDCK.

For KFFRKKSVKK [DRAVPe01822], the EC50 was 18.9 ± 7 µM.

For orientation: EC50 means the concentration that produces a half-maximal response.
